Assays:
[1] = set-up: method as in Lacivita et al., 2016; Modica et al., 2018; details: in vivo bio-distribution; ref Lacivita et al., 2016; Modica et al., 2018; cited from earlier work
Alfa-1 = molecular target: Alfa-1; set-up: method as in Lacivita et al., 2016; details: ref Lacivita et al., 2016; cited from earlier work
D2 = molecular target: D2; set-up: method as in Lacivita et al., 2016; details: ref Lacivita et al., 2016; cited from earlier work
5-HT1A = molecular target: 5-HT1A; set-up: method as in Lacivita et al., 2016; details: ref Lacivita et al., 2016; cited from earlier work
5-HT6 = molecular target: 5-HT6; set-up: method as in Lacivita et al., 2016; details: ref Lacivita et al., 2016; cited from earlier work
rats [2] = experiment: Conditioned place preference with MPH and TP-22; format: in vivo, rat (Wistar-Han)
From the text: The experimental apparatus used for the CPP test is a Black/White Box (BWB; Adriani et al., [2012]), i.e., a Plexiglas box with smooth walls and floor (70 × 30 × 35 cm) composed of two environments separated by a central gray wall placed at a distance of about 35 cm from end walls. The walls on the longer sides are gray whereas those on the short margins can be distinguished by black or white color. To make the two environments more recognizable, we added additional visual cues: three horizontal white stripes to the black wall and three vertical black stripes to the white wall. On the central gray wall there is a door with an easily removable panel (partition), allowing the experimental subjects to pass (or not) from one compartment chamber to the other, when required.
On both longer sides of the box, there are two aluminum bars equipped with eight photocells connected by cables to a computer. The software in use is Cage controller 1.27 for Dark Light for Rat and Mouse® (PRS, Rome, Italy)^2, that allows to score for each subject:
• Motor activity (beam interruptions per second) in either chamber • Time spent in each chamber (both forepaws and hindpaws in a same chamber) • Transitions (number of times a subject crosses the door between the two chambers)
This test was carried out under dim light and required nine not consecutive days divided into four steps (Figures 2–4):
• Day 1, initial preference test. The spontaneous place preference of experimental subjects was tested in drug-free conditions. They were initially placed in the black chamber (chosen as starting room) and central door was open during the whole test (15 min). The triplet of rats residing in each home cage was tested at the same time. • Days 2–7, drug conditioning. On odd days all 18 subjects were injected with saline solution only and, after injection, immediately placed in the black chamber. […]
The dependent variable was calculated as final preference day minus initial preference day. […]

rats [3] = tested on: rats; set-up: method as in Galici et al., 2008; Waters et al., 2012; details: ref Galici et al., 2008, Waters et al., 2012; cited from earlier work
mice = tested on: mice; set-up: method as in Galici et al., 2008; Waters et al., 2012; details: ref Galici et al., 2008, Waters et al., 2012; cited from earlier work

N#Cc1ccc(CNC(=O)CCCCCN2CCN(c3ccccc3-c3ccccc3)CC2)cc1 [LP-211, N-(4-cyanophenylmethyl)-4–(2-biphenyl)-1-piperazinehexanamide]
brain Cmax [1]: 540 ng/mL | Ki (Alfa-1): 22.6 nM | Ki (D2): 242 nM | Ki (5-HT1A): 379 nM | Ki (5-HT6): 1570 nM

COC(=O)C(c1ccccc1)C1CCCCN1 (stereo not shown) [MPH, methylphenidate]
locomotor activity on drug conditioning days (white chamber) (rats [2]; VEH then MPH 5 mg/kg i.v., vs saline control, P < 0.01): significantly enhanced | activity rate, post-conditioning preference test minus initial test (rats [2]; drug-free, VEH+MPH conditioned rats): negative during the entire session | time spent in the white side, post-conditioning preference test (rats [2]; drug-free, VEH+MPH conditioned rats, first 05 min): slight preference for the white side

CC1CCN(CC[C@H]2CCCN2S(=O)(=O)c2cccc(O)c2)CC1 [SB-269970]
amphetamine-induced hyperactivity (rats [3]): significantly attenuated | amphetamine-induced hyperactivity (mice): significantly attenuated

From article PMC6759476, “Prior Activation of 5-HT7 Receptors Modulates the Conditioned Place Preference With Methylphenidate” (Frontiers in Behavioral Neuroscience, 2019)
